# Data published in patent US20210215714A1, “COMPLEMENT ALTERNATIVE PATHWAY-ASSOCIATED NEPHROPATHY BIOMARKERS” (Achillion Pharmaceuticals, Inc., priority 2018, published 2021).
# Tested on: sC5b-9
# Assay: Phase 2a study: urinary sC5b-9 (MicroVue sC5b-9 Enzyme Immunoassay);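 further: urine from C3 glomerulopathy or IC-MPGN patients, sandwich ELISA capturing sC5b-9 via C9-ring monoclonal with HRP detection read at 450 nm, values raw or normalized to creatinine or albumin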
# [1] = Patient A, 100 mg TID, Day 1/0 Hour
# [2] = Patient A, 100 mg TID, Day 7/0 Hour
# [3] = Patient A, 100 mg TID, Day 15 Taper
# [4] = Patient A, 100 mg TID, Day 16 Taper
# [5] = Patient A, 100 mg TID, Day 17 Taper
# [6] = Patient A, 100 mg TID, Day 21 Taper
# [7] = Patient A, 100 mg TID, Follow-Up Day 24
# [8] = Patient A, 100 mg TID, Follow-Up Day 28
# [9] = Patient A, 100 mg TID, Follow-Up Day 49
# [10] = Patient B, 100 mg TID, Day 1/0 Hour
# [11] = Patient B, 100 mg TID, Day 7/0 Hour
# [12] = Patient B, 100 mg TID, Day 15 Taper
# [13] = Patient B, 100 mg TID, Day 16 Taper
# [14] = Patient B, 100 mg TID, Day 17 Taper
# [15] = Patient B, 100 mg TID, Day 21 Taper
# [16] = Patient B, 100 mg TID, Follow-Up Day 24
# [17] = Patient B, 100 mg TID, Follow-Up Day 28
# [18] = Patient B, 100 mg TID, Follow-Up Day 49
# [19] = Patient C, 200 mg TID, Day 1/0 Hour
# [20] = Patient C, 200 mg TID, Day 7/0 Hour
# [21] = Patient C, 200 mg TID, Day 15 Taper
# [22] = Patient C, 200 mg TID, Day 16 Taper
# [23] = Patient C, 200 mg TID, Day 17 Taper
# [24] = Patient C, 200 mg TID, Day 21 Taper
# [25] = Patient C, 200 mg TID, Follow-Up Day 24
# [26] = Patient C, 200 mg TID, Follow-Up Day 28
# [27] = Patient C, 200 mg TID, Follow-Up Day 49
# [28] = Patient C, 200 mg TID, Screen 1
# [29] = Patient D, 200 mg TID, Day 1/0 Hour
# [30] = Patient D, 200 mg TID, Day 7/0 Hour
# [31] = Patient D, 200 mg TID, Day 15 Taper
# [32] = Patient D, 200 mg TID, Day 17 Taper
# Excerpt: 10 patients with either C3 Glomerulopathy (C3G) or Immune-Complex Membranoproliferative Glomerulonephritis (IC-MPGN) are to be enrolled across two dose groups. […] Inclusion criteria include a clinical diagnosis of C3G (C3 glomerulonephritis [C3GN] or dense deposit disease [DDD], the 2 types of C3G) or idiopathic immune-complex membranoproliferative glomerulonephritis (IC-MPGN) by renal biopsy for at least 3 months prior to dosing, with the pathologic diagnosis verified by review of the renal biopsy by the study central pathologist. Patients must have low C3 levels (<50% of the lower limit of normal) and normal or near-normal C4 levels (>90% of the lower limit of normal).
# To measure urinary sC5b-9 production, patient urine samples were tested utilizing the MicroVue sC5b-9 Enzyme Immunoassay for the quantitation of sC5b-9 in urine. […] The samples were tested utilizing the MicroVue sC5b-9 Enzyme Immunoassay for the quantitation of sC5b-9 urine, which is a three-step procedure utilizing a micro-assay plate coated with a mouse monoclonal antibody that binds specifically to the C9 ring of sC5b-9, HRP-conjugated antibodies to antigens of sC5b-9, and a chromogenic substrate. In step 1, standards, controls, and test specimens are added to micro-assay wells pre-coated with an anti-sC5b-9 specific monoclonal antibody. sC5b-9 present in the Standards, Controls, or specimens will bind to the immobilized sC5b-9 monoclonal antibody. After incubation, a wash cycle removes unbound material. […] In step 2, horseradish peroxidase (HRP)-conjugated antibodies to antigens of sC5b-9 are added to each test well. The enzyme conjugated antibodies bind to sC5b-9 that was captured by the monoclonal anti-sC5b-9 bound on the surface of the micro-assay wells. After incubation, a wash cycle removes unbound, excess conjugate. In step 3, a chromogenic enzyme substrate is added to each micro-assay well. The bound HRP-conjugate reacts with the substrate, forming a blue color. After incubation the enzyme reaction is stopped chemically, the color changes to yellow, and the color intensity is measured spectrophotometrically at 450 nm. The color intensity of the reaction mixture is proportional to the concentration of sC5b-9 present in the test specimens, standards, and controls. […] Measurements of urinary biomarkers are typically normalized to urine creatinine or albumin levels to account for variation in biomarker levels due to changes in urinary filtration rate.
compound,measurement,setting,value
"CC(=O)c1nn(CC(=O)N2C[C@H](F)C[C@H]2C(=O)Nc2cccc(Br)n2)c2ccc(-c3cnc(C)nc3)cc12 [Compound 1, (2S,4R)-1-(2-(3-acetyl-5-(2-methylpyrimidin-5-yl)-1H-indazol-1-yl)acetyl)-N-(6-bromopyridin-2-yl)-4-fluoropyrrolidine-2-carboxamide]",sC5b-9/ALB,[1],38 ng/mg
same,sC5b-9/Cr,[1],9.9 µg/mmol
same,Urine sC5b-9,"Patient A, 100 mg TID, Day 1 predose",81.2 ng/mL
same,Urine sC5b-9,"Patient A, 100 mg TID, Day 4",84.2 ng/mL
same,sC5b-9/ALB,"Patient A, 100 mg TID, Day 4",48 ng/mg
same,sC5b-9/Cr,"Patient A, 100 mg TID, Day 4",10.5 µg/mmol
same,Urine sC5b-9,"Patient A, 100 mg TID, Day 7",70.4 ng/mL
same,sC5b-9/ALB,[2],46 ng/mg
same,sC5b-9/Cr,[2],10.7 µg/mmol
same,Urine sC5b-9,"Patient A, 100 mg TID, Day 10",52.0 ng/mL
same,sC5b-9/ALB,"Patient A, 100 mg TID, Day 10",37 ng/mg
same,sC5b-9/Cr,"Patient A, 100 mg TID, Day 10",8.4 µg/mmol
same,Urine sC5b-9,[3],56.9 ng/mL
same,sC5b-9/ALB,[3],54 ng/mg
same,sC5b-9/Cr,[3],7.8 µg/mmol
same,Urine sC5b-9,[4],66.2 ng/mL
same,sC5b-9/ALB,[4],62 ng/mg
same,sC5b-9/Cr,[4],8.8 µg/mmol
same,Urine sC5b-9,[5],84.4 ng/mL
same,sC5b-9/ALB,[5],74 ng/mg
same,sC5b-9/Cr,[5],8.5 µg/mmol
same,Urine sC5b-9,[6],85.8 ng/mL
same,sC5b-9/ALB,[6],70 ng/mg
same,sC5b-9/Cr,[6],9.9 µg/mmol
same,Urine sC5b-9,[7],95.0 ng/mL
same,sC5b-9/ALB,[7],69 ng/mg
same,sC5b-9/Cr,[7],9.5 µg/mmol
same,Urine sC5b-9,[8],79.7 ng/mL
same,sC5b-9/ALB,[8],61 ng/mg
same,sC5b-9/Cr,[8],8.0 µg/mmol
same,Urine sC5b-9,[9],57.5 ng/mL
same,sC5b-9/ALB,[9],92 ng/mg
same,sC5b-9/Cr,[9],13.4 µg/mmol
same,Urine sC5b-9,"Patient A, 100 mg TID, Screen",76.3 ng/mL
same,sC5b-9/ALB,"Patient A, 100 mg TID, Screen",40 ng/mg
same,sC5b-9/Cr,"Patient A, 100 mg TID, Screen",9.2 µg/mmol
same,sC5b-9/ALB,[10],1500 ng/mg
same,sC5b-9/Cr,[10],866 µg/mmol
same,Urine sC5b-9,"Patient B, 100 mg TID, Day 1 predose",5280 ng/mL
same,Urine sC5b-9,"Patient B, 100 mg TID, Day 4",2139 ng/mL
same,sC5b-9/ALB,"Patient B, 100 mg TID, Day 4",637 ng/mg
same,sC5b-9/Cr,"Patient B, 100 mg TID, Day 4",168 µg/mmol
same,Urine sC5b-9,"Patient B, 100 mg TID, Day 7",2266 ng/mL
same,sC5b-9/ALB,[11],624 ng/mg
same,sC5b-9/Cr,[11],155 µg/mmol
same,Urine sC5b-9,"Patient B, 100 mg TID, Day 10",1073 ng/mL
same,sC5b-9/ALB,"Patient B, 100 mg TID, Day 10",563 ng/mg
same,sC5b-9/Cr,"Patient B, 100 mg TID, Day 10",143 µg/mmol
same,Urine sC5b-9,"Patient B, 100 mg TID, Day 14",4010 ng/mL
same,sC5b-9/ALB,"Patient B, 100 mg TID, Day 14",911 ng/mg
same,sC5b-9/Cr,"Patient B, 100 mg TID, Day 14",240 µg/mmol
same,Urine sC5b-9,[12],3334 ng/mL
same,sC5b-9/ALB,[12],929 ng/mg
same,sC5b-9/Cr,[12],303 µg/mmol
same,Urine sC5b-9,[13],4784 ng/mL
same,sC5b-9/ALB,[13],1154 ng/mg
same,sC5b-9/Cr,[13],380 µg/mmol
same,Urine sC5b-9,[14],2693 ng/mL
same,sC5b-9/ALB,[14],907 ng/mg
same,sC5b-9/Cr,[14],238 µg/mmol
same,Urine sC5b-9,[15],2469 ng/mL
same,sC5b-9/ALB,[15],821 ng/mg
same,sC5b-9/Cr,[15],305 µg/mmol
same,Urine sC5b-9,[16],3958 ng/mL
same,sC5b-9/ALB,[16],1380 ng/mg
same,sC5b-9/Cr,[16],649 µg/mmol
same,Urine sC5b-9,[17],2376 ng/mL
same,sC5b-9/ALB,[17],882 ng/mg
same,sC5b-9/Cr,[17],335 µg/mmol
same,Urine sC5b-9,[18],14132 ng/mL
same,sC5b-9/ALB,[18],6312 ng/mg
same,sC5b-9/Cr,[18],883 µg/mmol
same,Urine sC5b-9,"Patient B, 100 mg TID, Screen",2598 ng/mL
same,sC5b-9/ALB,"Patient B, 100 mg TID, Screen",724 ng/mg
same,sC5b-9/Cr,"Patient B, 100 mg TID, Screen",351 µg/mmol
same,sC5b-9/ALB,[19],203 ng/mg
same,sC5b-9/Cr,[19],11.9 µg/mmol
same,Urine sC5b-9,"Patient C, 200 mg TID, Day 1 predose",21.5 ng/mL
same,Urine sC5b-9,"Patient C, 200 mg TID, Day 4",<8.8 ng/mL
same,sC5b-9/ALB,"Patient C, 200 mg TID, Day 4",173 ng/mg
same,sC5b-9/Cr,"Patient C, 200 mg TID, Day 4",4.63 µg/mmol
same,Urine sC5b-9,"Patient C, 200 mg TID, Day 7",<8.8 ng/mL
same,sC5b-9/ALB,[20],110 ng/mg
same,sC5b-9/Cr,[20],2.38 µg/mmol
same,Urine sC5b-9,"Patient C, 200 mg TID, Day 10",<8.8 ng/mL
same,sC5b-9/ALB,"Patient C, 200 mg TID, Day 10",160 ng/mg
same,sC5b-9/Cr,"Patient C, 200 mg TID, Day 10",5.50 µg/mmol
same,Urine sC5b-9,"Patient C, 200 mg TID, Day 14",<8.8 ng/mL
same,sC5b-9/ALB,"Patient C, 200 mg TID, Day 14",220 ng/mg
same,sC5b-9/Cr,"Patient C, 200 mg TID, Day 14",6.77 µg/mmol
same,Urine sC5b-9,[21],<8.8 ng/mL
same,sC5b-9/ALB,[21],131 ng/mg
same,sC5b-9/Cr,[21],5.87 µg/mmol
same,Urine sC5b-9,[22],<8.8 ng/mL
same,sC5b-9/ALB,[22],176 ng/mg
same,sC5b-9/Cr,[22],4.63 µg/mmol
same,Urine sC5b-9,[23],<8.8 ng/mL
same,sC5b-9/ALB,[23],126 ng/mg
same,sC5b-9/Cr,[23],4.00 µg/mmol
same,Urine sC5b-9,[24],10.3 ng/mL
same,sC5b-9/ALB,[24],158 ng/mg
same,sC5b-9/Cr,[24],3.67 µg/mmol
same,Urine sC5b-9,[25],11.0 ng/mL
same,sC5b-9/ALB,[25],186 ng/mg
same,sC5b-9/Cr,[25],6.11 µg/mmol
same,Urine sC5b-9,[26],21.2 ng/mL
same,sC5b-9/ALB,[26],154 ng/mg
same,sC5b-9/Cr,[26],7.32 µg/mmol
same,Urine sC5b-9,[27],14.0 ng/mL
same,sC5b-9/ALB,[27],149 ng/mg
same,sC5b-9/Cr,[27],3.04 µg/mmol
same,Urine sC5b-9,"Patient C, 200 mg TID, Screen",32.1 ng/mL
same,sC5b-9/ALB,"Patient C, 200 mg TID, Screen",387 ng/mg
same,sC5b-9/Cr,"Patient C, 200 mg TID, Screen",16.9 µg/mmol
same,Urine sC5b-9,[28],57.4 ng/mL
same,sC5b-9/ALB,[28],422 ng/mg
same,sC5b-9/Cr,[28],52.2 µg/mmol
same,sC5b-9/ALB,[29],22 ng/mg
same,sC5b-9/Cr,[29],4.8 µg/mmol
same,Urine sC5b-9,"Patient D, 200 mg TID, Day 1 predose",28.1 ng/mL
same,Urine sC5b-9,"Patient D, 200 mg TID, Day 4",18.5 ng/mL
same,sC5b-9/ALB,"Patient D, 200 mg TID, Day 4",15 ng/mg
same,sC5b-9/Cr,"Patient D, 200 mg TID, Day 4",4.1 µg/mmol
same,Urine sC5b-9,"Patient D, 200 mg TID, Day 7",15.8 ng/mL
same,sC5b-9/ALB,[30],43 ng/mg
same,sC5b-9/Cr,[30],14.3 µg/mmol
same,Urine sC5b-9,"Patient D, 200 mg TID, Day 10",8.9 ng/mL
same,sC5b-9/ALB,"Patient D, 200 mg TID, Day 10",14 ng/mg
same,sC5b-9/Cr,"Patient D, 200 mg TID, Day 10",8.9 µg/mmol
same,Urine sC5b-9,"Patient D, 200 mg TID, Day 14",12.0 ng/mL
same,sC5b-9/ALB,"Patient D, 200 mg TID, Day 14",13 ng/mg
same,sC5b-9/Cr,"Patient D, 200 mg TID, Day 14",3.9 µg/mmol
same,Urine sC5b-9,[31],20.3 ng/mL
same,sC5b-9/ALB,[31],10 ng/mg
same,sC5b-9/Cr,[31],4.8 µg/mmol
same,Urine sC5b-9,[32],15.3 ng/mL
same,sC5b-9/ALB,[32],9 ng/mg
same,sC5b-9/Cr,[32],5.3 µg/mmol
